Values quoted from earlier work, collected in patent US20240251900A1, “PATCH FOR TARGETED DELIVERY OF HAIR COMPOSITION AND METHOD FOR APPLYING SAME” (Better Not Younger Corporation, priority 2022, published 2024).

System: hair follicle
Details: Capixyl techsheet page 38

acetyl tetrapeptide-3
stimulation of hair growth versus market reference Minoxidil: stimulate hair growth better than the market reference, Minoxidil
